# Source: patent publication US12090179B2, “Methods of synergistic treatment of cancer” (priority 2016, dated 2024)
# Columns and labels:
# [1] = Percent weight change as measure of toxicity in BALB-neuT mice; format: in vivo
# Method: Female BALB-neu-T mice spontaneously developed palpable mammary fat pad tumors around 16 weeks of age (approximately 50-60 mm^3). At this time (day 0), the mice typically had 1-3 palpable tumors. For each experiment, individual tumors were measured by caliper, and their volume was calculated. Individual tumor volumes were calculated as spheroid (L×W^2×0.52) and combined to give a total tumor burden measurement for each mouse. Tumor burden data was gathered weekly from day 0 to day 35. Additionally, percent weight change data was gathered weekly for each mouse from day 0 to day 35. The percent weight change was calculated based on the baseline weight of each mouse.
# Various embodiments of method 200, described above with respect to FIG. 2, were used to treat tumors in the BALB-neuT model using combinations of attenuated S. typhimurium and the chemotherapy agent doxorubicin. A prescribed amount per cfu of the appropriate S. typhimurium strain (SalpIL2 or SalpNG.1) was administered via intravenous injection or gavage orally in 100 μL of PBS. The doxorubicin was administered intravenously via tail vein. Additionally, using the same methods of administration, a number of control groups received PBS alone, doxorubicin alone, SalpIL2 alone, or SalpNG.1 alone.
# FIG. 6 is a line graph of percent weight change versus days post-treatment in mice treated with combinations of attenuated S. typhimurium and doxorubicin compared to control groups. Weight change in mice is an accurate measure of the degree of toxicity of a chemotherapy agent. […] While the control group that received PBS (301) saw a greater than 25% increase in weight by day 30, the mice in that group died or were moribund and euthanized due to tumor growth.
# mammary fat pad tumors = format: in vivo, BALB-neuT mice
# Source text: The BALB-neuT model is a genetically engineered mouse model in which mammary tumor development is driven by expression of a constitutively activated rat homolog of human epidermal growth factor receptor 2. In this model, autochthonous tumors develop over several months and are palpable in the mammary pads of female mice around 16 weeks of age. The tumors closely resemble the aggressive Her2-driven cancer found in human patients.
# BALB-neuT mice were maintained in specific pathogen free conditions and fed standard mouse chow (Harlan). Animals were cared for by the University of Minnesota's Research Animal Resources, and all animal use was approved by the University's Institutional Animal Care and Use Facility. Genotyping for the neu transgene was performed by Transnetyx on male and female pups. Breeding pairs consisted of heterozygous males and homozygous negative females. Female mice that were positive for the neu transgene were monitored for tumor development.
# Three control groups received doxorubicin alone. The first control group (302) received the maximum tolerated dose (MTD) of intravenous (IV) 5 mg/kg doxorubicin on days 0, 7, and 14. The second control group (303) received IV 2.5 mg/kg (50% reduction in MTD) doxorubicin on days 0, 7 and 14.
# One control group (305) of mice received SalpIL2 alone. […] Another control group (306) received Salp NG.1 alone.
# For combination therapy treatment with SalpIL2, one group of mice (307) received an oral dose of 1×10^9 cfu SalpIL2 as well as IV 1.25 mg/kg doxorubicin on day 0. Two additional doses of IV 1.25 mg/kg doxorubicin were administered on days 7 and 14. For combination therapy treatment with SalpNG.1, a first group of mice (308) received an IV dose of 2×10^6 cfu SalpNG.1 as well as IV 1.25 mg/kg doxorubicin on day 0. Two additional doses of IV 1.25 mg/kg doxorubicin were administered on days 7 and 14. A second group of mice (309) received an IV dose of 2×10^6 cfu SalpNG.1 as well as IV 2.5 mg/kg doxorubicin on day 0. Two additional doses of IV 2.5 mg/kg doxorubicin were administered on days 7 and 14.
# [2] = doxorubicin alone IV 1.25 mg/kg on days 0, 7, 14, group 304
# [3] = doxorubicin alone IV 5 mg/kg (MTD) on days 0, 7, 14, group 302
# [4] = doxorubicin alone IV 1.25 mg/kg (25% of MTD) on days 0, 7, 14, group 304
compound,measurement,setting,value
COc1cccc2c1C(=O)c1c(O)c3c(c(O)c1C2=O)C[C@@](O)(C(=O)CO)C[C@@H]3O[C@H]1C[C@H](N)[C@H](O)[C@H](C)O1 [doxorubicin],toxicity judged from weight change,[1]; [2],non-toxic
same,weight change by day 14,[1]; [2],did not show any weight loss
same,weight gain by day 35,[1]; [2],< 10%
same,toxicity judged from weight change,[1]; [3],significant toxicity
same,weight loss by day 14,[1]; [3],greater than 20%
same,weight loss by day 35,[1]; [3],~10%
same,tumor burden relative to the MTD doxorubicin group (302) by day 21,mammary fat pad tumors; [4],almost double
same,tumor burden relative to the MTD doxorubicin group (302) by day 35,mammary fat pad tumors; [4],~5 times
same,tumor burden compared with groups 302 (MTD) and 304 (1.25 mg/kg),"mammary fat pad tumors; doxorubicin alone IV 2.5 mg/kg (50% of MTD) on days 0, 7, 14, group 303",in between
same,tumor burden at day 35,mammary fat pad tumors; [3],around 100 mm^3
same,tumor burden compared with the other groups,mammary fat pad tumors; [3],lowest
